5 compounds from patent publication US8618129B2, “Substituted 1-oxo-dihydroisoquinoline-3-carboxamides as KCNQ2/3 modulators” (Gruenenthal GmbH, priority 2010, dated 2013) can be followed below.

For test [1], the system named is withdrawal reflex of the rat tail (tail flick). The test can be described thus: Low-intensity tail flick test (rat). It is filed as in vivo. The conditions noted are these: dose 10.00 mg/kg (in brackets in the cell). The protocol: Method II. Low-Intensity Tail Flick Test (Rat)
In the low-intensity tail flick test, the determination of the antinociceptive effect of the compounds according to the invention towards an acute noxious thermal stimulus is carried out by measuring the withdrawal reflex of the rat tail (tail flick) in response to a radiant heat beam (analgesia meter; model 2011 of the company Rhema Labortechnik, Hofheim, Germany) according to the method described by D'Amour and Smith (J. Pharm. Exp. Ther. 72, 74 79 (1941). To this end, the rats were placed in a plexiglas restrainer, and a low-intensity radiant heat beam (48° C.) was focused onto the dorsal surface of the tail root. The stimulus intensity was adjusted to result in a mean pre-drug control withdrawal latency of about 7 s, thus also allowing a supraspinal modulation of the spinally mediated acute nociceptive reflex. […] Before administration of a compound according to the invention, the animals were pre-tested twice in the course of five minutes and the mean of these measurements was calculated as the pre-test mean. The antinociceptive effect was determined at 20, 40 and 60 min after peroral compound administration. The antinociceptive effect was calculated based on the increase in the tail withdrawal latency according to the following formula and is expressed as percentage of the maximum possible effect (MPE [%]): MPE=[(T1−T0)/(T2−T0)]*100 […]

Another test concerns the target T1, KCNQ2/3 channels (Homo sapiens, UniProt O43525+O43526).
T1 construct: expressed in transfected cells; host or cells: CHO-K1 cells, kept under selection antibiotics
In words: Fluorescence assay using a voltage sensitive dye (fluorimetry). The class given is cell-based. The conditions noted are these: CHO-K1 cells expressing KCNQ2/3 channels; for Emax: agonistic efficacy relative to retigabine = 100%. The protocol:
Method I. Fluorescence Assay Using a Voltage Sensitive Dye
Human CHO-K1 cells expressing KCNQ2/3 channels are cultivated adherently at 37° C., 5% CO2 and 95% humidity in cell culture bottles (e.g. 80 cm^2 TC flasks, Nunc) with DMEM-high glucose (Sigma Aldrich, D7777) including 10% FCS (PAN Biotech, e.g. 3302-P270521) or alternatively MEM Alpha Medium (1×, liquid, Invitrogen, #22571), 10% fetal calf serum (FCS) (Invitrogen, #10270-106, heat-inactivated) and the necessary selection antibiotics.
Before being sown out for the measurements, the cells are washed with a 1× DPBS buffer without Ca^2+/Mg^2+ (e.g. Invitrogen, #14190-094) and detached from the bottom of the culture vessel by means of Accutase (PAA Laboratories, #L11-007) (incubation with Accutase for 15 min at 37° C.). The cell count then present is determined using a CASY™ cell counter (TCC model, Schärfe System) in order subsequently to apply, depending on the density optimization for the individual cell line, 20,000-30,000 cells/well/100 μl of the described nutrient medium to 96-well measuring plates of the Corning™ CellBIND™ type (Flat Clear Bottom Black Polystyrene Microplates, #3340). Incubation is then carried out for one hour at room temperature, without gassing or adjusting the humidity, followed by incubation for 24 hours at 37° C., 5% CO2 and 95% humidity.
The voltage-sensitive fluorescent dye from the Membrane Potential Assay Kit (Red™ Bulk format part R8123 for FLIPR, MDS Analytical Technologies™) is prepared by dissolving the contents of a vessel Membrane Potential Assay Kit Red Component A in 200 ml of extracellular buffer (ES buffer, 120 mM NaCl, 1 mM KCl, 10 mM HEPES, 2 mM CaCl2, 2 mM MgCl2, 10 mM glucose; pH 7.4). After removal of the nutrient medium, the cells are washed with 200 μl of ES buffer, then covered with a layer of 100 μl of the dye solution prepared above and incubated for 45 min at room temperature with the exclusion of light.
The fluorescence measurements are carried out with a BMG Labtech FLUOstar™, BMG Labtech NOVOstar™ or BMG Labtech POLARstar™ instrument (525 nm excitation, 560 nm emission, Bottom Read mode). After incubation of the dye, 50 μl of the test substances in the desired concentrations, or 50 μl of ES buffer for control purposes, are introduced into separate cavities of the measuring plate and incubated for 30 min at room temperature while being shielded from light. The fluorescence intensity of the dye is then measured for 5 min and the fluorescence value F1 of each well is thus determined at a given, constant time. 15 μl of a […] KCl solution ([…]) are then added to each well. The change in fluorescence is subsequently measured until all the relevant measured values have been obtained (mainly 5-30 min). At a given time after KCl application, a fluorescence value F2 is determined, in this case at the time of the fluorescence peak.
For calculation, the fluorescence intensity F2 is compared with the fluorescence intensity F1, and the agonistic activity of the target compound on the potassium channel is determined therefrom. F2 and F1 are calculated as follows: […]
A substance has an agonistic activity on the potassium channel when
[formula] is to be observed as the dosage of the target compound increases. Calculations of EC50 and IC50 values are carried out with the aid of ‘Prism v4.0’ software (GraphPad Software™).

For the compound `CCCn1c(C(=O)NCc2cccc(F)c2)c(C)c2ccc(C(F)(F)F)cc2c1=O` [Example 2, N-(3-fluorobenzyl)-4-methyl-1-oxo-2-propyl-7-(trifluoromethyl)-1,2-dihydroisoquinoline-3-carboxamide], the “Low intensity tail flick, rat, peroral, % MPE (dose [mg/kg])” value in test [1] was 10 (10.00) % MPE. Moreover, on KCNQ2/3 channels, the midpoint of the response, the EC50, lay at 124 nM and the Emax (usually the maximal effect, on the per cent scale that the assay sets) came out at 134%.
Consider `Cc1c(C(=O)NCc2cccc(F)c2)n(C)c(=O)c2cc(C(F)(F)F)ccc12` [Example 1, N-(3-fluorobenzyl)-2,4-dimethyl-1-oxo-7-(trifluoromethyl)-1,2-dihydroisoquinoline-3-carboxamide], for which, at KCNQ2/3 channels, the EC50 (usually the concentration needed to bring the measured effect to its halfway point) turned out to be 1950 nM and the Emax was found to be 164%.
The matching figures for `Cc1c(C(=O)NCc2cccc(F)c2)n(C(C)C)c(=O)c2cc(C(F)(F)F)ccc12` [Example 4, N-(3-fluorobenzyl)-2-isopropyl-4-methyl-1-oxo-7-(trifluoromethyl)-1,2-dihydroisoquinoline-3-carboxamide]: 381 nM and 144%.
Taken in the same sequence, the figures for `COCCn1c(C(=O)NCc2cccc(F)c2)c(C)c2ccc(C(F)(F)F)cc2c1=O` [Example 5, N-(3-fluorobenzyl)-2-(2-methoxyethyl)-4-methyl-1-oxo-7-(trifluoromethyl)-1,2-dihydroisoquinoline-3-carboxamide] were 283 nM and 87%.
On to `CCn1c(C(=O)NCc2cccc(F)c2)c(C)c2ccc(C(F)(F)F)cc2c1=O` [Example 3, 2-ethyl-N-(3-fluorobenzyl)-4-methyl-1-oxo-7-(trifluoromethyl)-1,2-dihydroisoquinoline-3-carboxamide], for which, on KCNQ2/3 channels, the concentration giving a half-maximal response (EC50) was 196 nM and the Emax is 103%.
